Consider one compound from US12501919B2, “Method for increasing anthocyanin content in carrots” (UNIVERSITY OF COPENHAGEN, priority 2016, dated 2025).

Entries after “also recorded” stand apart in the source; their conditions may differ.

For test [1], the system named is black carrot (Deep Purple F1) roots. Nature of the test: Field trial, foliar spray on black carrot, small plots harvested 21 weeks after sowing. The format is in vivo, Daucus carota ssp. sativus var. atrorubens Alef. The note with it: for increase of mean anthocyanin concentration of treated plants compared with respective controls: 21 weeks after sowing, foliar spray, 6 applications; for accumulation of anthocyanin in roots: field-applied, measured twenty-one weeks after sowing (FIG. 1, FIG. 2). The method, then: (§1) The experiment consisted on a factorial combination of […] (Deep Purple F1) and three sowing dates: 19 May 2014, and 18 and 25 May 2015, in field trials in Taastrup, Denmark, at the experimental station in Højbakkegård (latitude 55, longitude […]). Seeds were provided by Chr. Hansen A/S. Plants were cultivated on loamy soil. Air temperatures during the growing period were slightly different in both years of cultivation (mean values of 2 years: 15.4 and 14.6° C., May-October). Rainfall was complemented by irrigation throughout carrot growth to avoid water stress. The routine techniques of cultivation and plant protection, recommended for carrot crop production were applied.
(§2) Plots were arranged in a randomized block design with three replications. In the three sowing dates, each plot consisted of three 4.5 m-long rows. Additionally, plots of three 12 m-long rows were arranged in 18 May 2015. 2-Chloroethylphosphonic acid solution (CERONE® brand ETHEPHON, 39.9% Bayer CropScience, Leverkusen, Germany) was applied as a foliar spray avoiding the rainy days, at rates of 0, 120 and 360 g·ha^−1 a.i. in 2014; 0, 360, and 720 g·ha^−1 a.i. in 2015 for small plots; and 0 and 360 g·ha^−1 a.i. for large plots. Applications were made using a CO2 backpack spaced 50 cm apart, beginning 6 weeks after planting and continuing every 3 weeks, for a total of 6 applications.
Small plots (4.5 m-long rows) were harvested 21 weeks after sowing. The roots were manually harvested from the middle part of each row.
In all analyses, 20 whole carrot roots per plot were washed and split lengthwise: 20 halves were ground in liquid nitrogen, and the generated powder was stored at −80° C. for further gene expression analyses; the complementary 20 halves were coarsely ground in a commercial blender, and 50 g of the resulting purée were immediately homogenized in 50 g of a 3% sulfuric acid solution (v/v), by using a Waring two-speed commercial blender (VWR—Bie & Berntsen, Herlev, Denmark). The resulting fine purée (4 g) was subsequently mixed with demineralized water (8 g) and vortexed. After incubation for 1 h at room temperature, the sample was centrifuged 20 min at 4500 rpm, and the supernatant (extract) was utilized for further analyses.
Soluble solids were calculated with a digital refractometer with automatic temperature compensation and operating range from 0 to 53° Brix. For its calculation, the carrot extract obtained was filtered through 0.45 μm membrane filters, and Brix measurements were performed using 1 mL of the filtrate. For each measurement, two technical replicates were made and their average was reported.
Dry matter was determined by the mass difference between the fresh sample and the dry sample. The sample was dried 24 h until it reached a constant weight using an oven at 90° C. The results were expressed as percentage of dry matter. For each measurement, two technical replicates were made and their average was reported.
TMC was measured spectrophotometrically based on the pH differential method, with slight modifications. The carrot extract was diluted by adding 20 volumes of 0.2 M KCl-HCl pH 1, and TMC was measured at […] and 700 nm (to correct for sediment) using a UV-Vis spectrophotometer (Evolution™ 220, Thermo Fischer Scientific, Waltham, MA, USA). The TMC was expressed as cyaniding-3-glucoside equivalents (ppm).
All analyses were performed with three technical and three biological replicates. Data were subjected to statistical analysis using SPSS software (version 22, SPSS Inc., Chicago, IL, USA). Treatments were compared using one-way analysis of variance (ANOVA) followed by a Tukey post hoc test. p<0.05 was considered significant.

Test [2] has as its system black carrot (Deep Purple) roots. Description: Field trial, foliar spray on black carrot, large plots with successive harvests 7 to 35 weeks after planting. It is filed as in vivo, Daucus carota ssp. sativus var. atrorubens Alef. The method, then: as §1, §2
Large plots (12 m-long rows) were harvested several times from separate row segments, during the growing period from 30 Jun. 2015 to 19 Jan. 2016 (7, 10, 13, 16, 19, 22, 25, 26, 29 and 35 weeks after planting). Carrot production was estimated in large plots 21 weeks after planting: two meters per row was dug from each plot, and the carrots were washed and weighed. Measured weights were extrapolated to tons per hectare. […]
Soluble solids were calculated with a digital refractometer with automatic temperature compensation and operating range from 0 to 53° Brix. […]
Dry matter was determined by the mass difference between the fresh sample and the dry sample. […] The results were expressed as percentage of dry matter. […]
TMC was measured spectrophotometrically based on the pH differential method, with slight modifications. The carrot extract was diluted by adding 20 volumes of 0.2 M KCl-HCl pH 1, and TMC was measured at […] and 700 nm (to correct for sediment) using a UV-Vis spectrophotometer (Evolution™ 220, Thermo Fischer Scientific, Waltham, MA, USA). The TMC was expressed as cyaniding-3-glucoside equivalents (ppm). […]

Setting [3] is: treated plants versus controls (FIG. 1).

As to `O=P(O)(O)CCCl` [2-Chloroethylphosphonic acid], in test [1] (120, 360 and 720 g ha^-1 a.i. treatments compared, either growing season), the “effect of total amount applied on the accumulation of anthocyanin” value is “no differences were found; also recorded: nonsignificant effect”. For the same compound, the “increase of mean anthocyanin concentration of treated plants compared with respective controls” value is reported as 49% in test [1] (Harvest 1 (first of three repetitions of two growing seasons)), 38% in test [1] (Harvest 2 (second of three repetitions)) and 65% in test [1] (Harvest 3 (third of three repetitions)). For the same compound, in test [1] (either growing season (FIG. 1)), the root weight result was “did not affect”. Also, the entries for the “accumulation of anthocyanin in roots” value in test [1] and in test [1] (listed as ethylene-releasing compound) were “induced the accumulation of anthocyanin” and “increased amounts of anthocyanin; also recorded: induced the accumulation of anthocyanin”, respectively. Moreover, the “increase of mean anthocyanin concentration in the roots of treated plants compared with respective controls (summary)” value in test [1] (pre-harvest foliar spraying on black carrot leaves, over all repetitions) was “more than 35%”. For the same compound, in test [1] (setting [3]), the “dry weight (DW)” value is “lowest values”. Besides, the “soluble sugar content (SSC)” value in test [1] (setting [3]) is “lowest values”. For the same compound, the “root colour in cross and longitudinal sections” value in test [1] (treated roots versus untreated roots with white core (FIG. 2)) is on record as “solid purple colour”. The “TMC after the last application” value in test [2] (7 weeks after the application of the last treatment (22 to 27 weeks after planting) (FIG. 3A)) is “continued to increase”. In addition, the “root length, treated versus untreated carrots” value in test [2] (at each harvest time (FIG. 4)) is “differed insignificantly”. For the same compound, the “root weight, treated versus untreated carrots” value in test [2] (at each harvest time (FIG. 4)) is on record as “differed insignificantly”. For the same compound, the “mean anthocyanin concentration (TMC) of treated roots versus untreated” value in test [2] (at every harvest point, 7 to 35 weeks after planting, 360 g ha^-1 a.i.) was “higher”.
